Measured values from the OPERA property sets (Mansouri et al. 2018).
In brackets after ≈: the same amount, converted by molar mass.

Settings: not given

| Compound | logP | solubility [µM] |
| --- | --- | --- |
| CC(Oc1ccc(Oc2ccc(Cl)cc2Cl)cc1)C(=O)O (centres undefined) | 4.58 |  |
| O=C(NC(=O)c1c(F)cccc1F)Nc1cc(Cl)c(Oc2ncc(C(F)(F)F)cc2Cl)c(Cl)c1 | 5.8 |  |
| OC(c1ccc(F)cc1)(c1cncnc1)c1ccccc1Cl (centres undefined) | 3.18 |  |
| CC(C)(C)c1ccc(CCOc2ncnc3ccccc23)cc1 | 5.51 |  |
| CNc1nc(NC(C)C)nc(SC)n1 | 2.38 |  |
| CC1(C)CNC(=NN=C(/C=C/c2ccc(C(F)(F)F)cc2)/C=C/c2ccc(C(F)(F)F)cc2)NC1 | 2.31 |  |
| O=C1c2ccccc2C(=O)C1C(=O)C(c1ccccc1)c1ccccc1 |  | 0.881 (≈ 0.3 µg/mL) |
| CCN(CC)C(=O)SCc1ccccc1Cl | 3.43 |  |
| CCCSP(=S)(OCC)Oc1ccc(Cl)cc1Cl (centres undefined) | 5.67 |  |
| O=C(O)COc1ccc(Cl)cc1CO |  | 9230 (≈ 2000 µg/mL) |
| CCOC(=O)CCN(SN(C)C(=O)Oc1cccc2c1OC(C)(C)C2)C(C)C | 4.3 |  |
| CCCCN(CC)C(=O)SCCC | 3.83 |  |
| CCOC(=O)c1cn2nc(OP(=S)(OCC)OCC)cc2nc1C | 3.8 |  |
| COCC(C)N(C(=O)CCl)c1c(C)csc1C (centres undefined) | 2.15 |  |
| CCCCCOC(=O)COc1cc(N2C(=O)C3=C(CCCC3)C2=O)c(F)cc1Cl | 4.99 |  |
| COC(=O)Nc1cccc(OC(=O)Nc2cccc(C)c2)c1 | 3.59 |  |
| CS(=O)(=O)NC(=O)c1cc(Oc2ccc(C(F)(F)F)cc2Cl)ccc1[N+](=O)[O-] | 2.9 |  |
| CCCCCCCCSCCO | 3.64 |  |
| N#Cc1c[nH]cc1-c1cccc(Cl)c1Cl | 3.86 |  |
| CNC(=O)N(C)c1nc2ccccc2s1 | 2.64 |  |
| CCOc1ccc(C(C)(C)COCc2cccc(Oc3ccccc3)c2)cc1 | 7.05 |  |
| CCOCn1c(-c2ccc(Cl)cc2)c(C#N)c(Br)c1C(F)(F)F | 4.83 |  |
| O=C(NC(=O)c1c(F)cccc1F)Nc1ccc(Cl)c(Oc2ncc(C(F)(F)F)cc2Cl)c1 | 5.1 |  |
| CCCCOC(=O)C(C)Oc1ccc(Oc2ccc(C(F)(F)F)cn2)cc1 (centres undefined) | 4.5 |  |
| CCCOC(=O)c1ccc(C(=O)OCCC)nc1 | 3.57 |  |
| c1coc(-c2nc3ccccc3[nH]2)c1 | 2.67 |  |

Same assay, conditions: 20 °C

| Compound | solubility [µM] |
| --- | --- |
| Cc1nn(C)c(OCC(=O)c2ccccc2)c1C(=O)c1ccc(Cl)cc1Cl | 2230 (≈ 900 µg/mL) |
| CC(C)(C)c1ccc(CCOc2ncnc3ccccc23)cc1 | 0.718 (≈ 0.22 µg/mL) |
| Cc1ccccc1C(=O)Nc1cccc(OC(C)C)c1 | 47.2 (≈ 12.7 µg/mL) |
| Cc1cnc2c(C(=O)O)c(Cl)ccc2c1 | 1010 (≈ 223 µg/mL) |
| COP(=O)(OC)O/C(=C\Cl)c1ccc(Cl)cc1Cl | 392 (≈ 130 µg/mL) |
| CCCCCCC(C)OC(=O)COc1nc(F)c(Cl)c(N)c1Cl (centres undefined) | 0.245 (≈ 0.09 µg/mL) |

Same assay, conditions: 23 °C

| solubility [µM] | Compound |
| --- | --- |
| 93.1 (≈ 24 µg/mL) | CCN(CC)C(=O)SCc1ccccc1Cl |

Same assay, conditions: 25 °C

| Compound | solubility [µM] |
| --- | --- |
| CC(C)(C)C(O)/C(=C\c1ccc(Cl)cc1Cl)n1cncn1 (centres undefined) | 12.3 (≈ 4 µg/mL) |
| O=C(O)c1cc(Oc2ccc(C(F)(F)F)cc2Cl)ccc1[N+](=O)[O-] | 332 (≈ 120 µg/mL) |
| CC1(C)CNC(=NN=C(/C=C/c2ccc(C(F)(F)F)cc2)/C=C/c2ccc(C(F)(F)F)cc2)NC1 | 0.0121 (≈ 0.006 µg/mL) |
| O=c1ccc(=O)[nH][nH]1 | 53500 (≈ 6000 µg/mL) |
| COCC(C)N(C(=O)CCl)c1c(C)csc1C (centres undefined) | 4350 (≈ 1200 µg/mL) |
| CN(C)NC(=O)CCC(=O)O | 624000 (≈ 100000 µg/mL) |
| CCCCCOC(=O)COc1cc(N2C(=O)C3=C(CCCC3)C2=O)c(F)cc1Cl | 0.446 (≈ 0.189 µg/mL) |
| N#Cc1c[nH]cc1-c1cccc(Cl)c1Cl | 20.2 (≈ 4.8 µg/mL) |
| CCOc1cc(Oc2ccc(C(F)(F)F)cc2Cl)ccc1[N+](=O)[O-] | 0.298 (≈ 0.108 µg/mL) |
| CCOP(=O)(N=C1SCC(C)S1)OCC (centres undefined) | 212 (≈ 57 µg/mL) |
| CC(C)(N=C(O)C(Br)C(C)(C)C)c1ccccc1 (centres undefined) | 11.3 (≈ 3.54 µg/mL) |
| Cc1ccc(C(=O)COc2c(C(=O)c3ccc(Cl)c(C)c3Cl)c(C)nn2C)cc1 | 0.301 (≈ 0.13 µg/mL) |
| COc1ccc(NC(=O)N(C)C)cc1Cl | 2620 (≈ 600 µg/mL) |

Same assay, conditions: 27 °C

| Compound | solubility [µM] |
| --- | --- |
| C/C=C\COCN(C(=O)CCl)c1c(CC)cccc1CC | 93.6 (≈ 29 µg/mL) |
| CN(C)C(=O)C(c1ccccc1)c1ccccc1 | 1090 (≈ 260 µg/mL) |

Same assay, conditions: pH 5.0; 25 °C

| solubility [µM] | Compound |
| --- | --- |
| 0.403 (≈ 0.17 µg/mL) | COc1cc(OC)nc(N=C(O)NS(=O)(=O)Nc2ccccc2C(=O)C2CC2)n1 |

Same assay, conditions: pH 6.4; 21 °C

| Compound | solubility [µM] |
| --- | --- |
| O=C(Nc1ccccc1)Nc1ccnc(Cl)c1 | 157 (≈ 39 µg/mL) |

Same assay, conditions: pH 6.5; 23 °C

| solubility [µM] | Compound |
| --- | --- |
| 3.1 (≈ 1.19 µg/mL) | CCCCOC(=O)C(C)Oc1ccc(Oc2ccc(C(F)(F)F)cn2)cc1 (centres undefined) |

Same assay, conditions: pH 7.0; 20 °C

| Compound | solubility [µM] |
| --- | --- |
| OC(Cn1cncn1)(c1ccc(F)cc1)c1ccccc1F (centres undefined) | 431 (≈ 130 µg/mL) |

Same assay, conditions: pH 7.0; 25 °C

| Compound | solubility [µM] |
| --- | --- |
| OC(c1ccc(F)cc1)(c1cncnc1)c1ccccc1Cl (centres undefined) | 82.6 (≈ 26 µg/mL) |

Same assay, conditions: pH 9.0; 20 °C

| solubility [µM] | Compound |
| --- | --- |
| 687 (≈ 150 µg/mL) | Cc1ccc(N=c2sccn2C)c(C)c1 |
